Measurements: PubChem BioAssay (NCI)
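Results reflect a 48-hour exposure of cells in 96-well plates to compound at five concentrations. At the GI50, growth is halved. TGI: concentration producing complete growth inhibition.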

Columns and labels:
Assay in all cases: growth of human tumour cells (NCI), 48 h
[1] = test system: U251 CNS
[2] = test system: NCI-H23 lung
[3] = test system: SK-OV-3 ovarian
[4] = test system: KM12 colon
[5] = test system: EKVX NSCLC
[6] = test system: MOLT-4 leukemia
[7] = test system: BT-549 breast
[8] = test system: MDA-MB-435
[9] = test system: RXF 393 renal
[10] = test system: TK-10 renal
[11] = test system: SR leukemia
[12] = test system: SN12C renal
[13] = test system: OVCAR-5 ovarian
[14] = test system: NCI/ADR-RES ovarian
[15] = test system: MALME-3M melanoma
[16] = test system: MCF7 breast
[17] = test system: NCI-H522 lung
[18] = test system: DU-145 prostate
[19] = test system: NCI-H226 lung
[20] = test system: HCC-2998 colon
[21] = test system: NCI-H460 lung
[22] = test system: 786-0 renal
[23] = test system: SK-MEL-5 melanoma
[24] = test system: SNB-19 CNS
[25] = test system: M14 melanoma
[26] = test system: CAKI-1 renal
[27] = test system: SF-295 CNS
[28] = test system: HCT-116 colon
[29] = test system: UACC-257 melanoma
[30] = test system: A498 renal
[31] = test system: HCT-15 colon
[32] = test system: COLO 205 colon
[33] = test system: SF-539 CNS
[34] = test system: OVCAR-8 ovarian
[35] = test system: OVCAR-4 ovarian
[36] = test system: MDA-MB-231 breast
[37] = test system: UO-31 renal
[38] = test system: HOP-62 NSCLC
[39] = test system: A549 NSCLC
[40] = test system: ACHN renal
[41] = test system: OVCAR-3 ovarian
[42] = test system: SF-268 CNS
[43] = test system: SK-MEL-2 melanoma
[44] = test system: RPMI-8226 leukemia
[45] = test system: HS 578T breast
[46] = test system: SW-620 colon
[47] = test system: CCRF-CEM leukemia
[48] = test system: HOP-92 NSCLC
[49] = test system: K-562 leukemia
[50] = test system: IGROV1 ovarian
[51] = test system: LOX IMVI melanoma
[52] = test system: PC-3 prostate
[53] = test system: UACC-62 melanoma
[54] = test system: T-47D breast
[55] = test system: HT29 colon
[56] = test system: SNB-75 CNS

`CCCCCCCCCCCC(=O)N1CCN(C(C)=O)CC1` showed a GI50 [1] of 50.5 µM, a TGI [1] greater than 100 µM and a GI50 [2] of 19.5 µM. The TGI [2] was 40.8 µM, the GI50 [3] was 20.7 µM and the TGI [3] was 39.7 µM. For the same compound, the GI50 [4] was 25 µM, the TGI [4] was 56.5 µM and the GI50 [5] was 33.5 µM. For the same compound, the TGI [5] was greater than 100 µM, the GI50 [6] was 20.8 µM and the TGI [6] was 47.8 µM. It also gave a GI50 [7] of 24.6 µM, a TGI [7] of 58.1 µM and a GI50 [8] of 20.4 µM. It also gave a TGI [8] of 40.9 µM, a GI50 [9] of 15.4 µM and a TGI [9] of 33.4 µM. The GI50 [10] was 31 µM, the TGI [10] was 72.1 µM and the GI50 [11] was 22 µM. For the same compound, the TGI [11] was 53.5 µM, the GI50 [12] was 18.8 µM and the TGI [12] was 37.3 µM. It also gave a GI50 [13] of 21.2 µM, a TGI [13] of 48.5 µM and a GI50 [14] of 25.9 µM. The TGI [14] was 72.6 µM, the GI50 [15] was 26.9 µM and the TGI [15] was 52.9 µM. The GI50 [16] was 17.6 µM, the TGI [16] was 32.8 µM and the GI50 [17] was 17.4 µM. It also gave a TGI [17] of 38.4 µM, a GI50 [18] of 35 µM and a TGI [18] greater than 100 µM. It also gave a GI50 [19] of 27.9 µM, a TGI [19] of 77.3 µM and a GI50 [20] of 14.8 µM. The TGI [20] was 28.1 µM, the GI50 [21] was 19.8 µM and the TGI [21] was 38.1 µM. The GI50 [22] was 16.9 µM, the TGI [22] was 31.1 µM and the GI50 [23] was 23.7 µM. It also gave a TGI [23] of 38.9 µM, a GI50 [24] of 19.3 µM and a TGI [24] of 40 µM. It also gave a GI50 [25] of 17.6 µM, a TGI [25] of 33 µM and a GI50 [26] of 19.9 µM. The TGI [26] was 38.9 µM, the GI50 [27] was 26.6 µM and the TGI [27] was 63 µM. The GI50 [28] was 22.5 µM, the TGI [28] was 63.4 µM and the GI50 [29] was 19.4 µM. It also gave a TGI [29] of 36.9 µM, a GI50 [30] of 62.7 µM and a TGI [30] greater than 100 µM. The GI50 [31] was 40.2 µM, the TGI [31] was greater than 100 µM and the GI50 [32] was 18.1 µM. The TGI [32] was 33.6 µM, the GI50 [33] was 18 µM and the TGI [33] was 32.4 µM. The GI50 [34] was 29.3 µM, the TGI [34] was greater than 100 µM and the GI50 [35] was 32.8 µM. The TGI [35] was greater than 100 µM, the GI50 [36] was 21 µM and the TGI [36] was 38.2 µM. It also gave a GI50 [37] of 18.7 µM, a TGI [37] of 42.6 µM and a GI50 [38] of 18.1 µM. It also gave a TGI [38] of 36.4 µM, a GI50 [39] of 28 µM and a TGI [39] greater than 100 µM. For the same compound, the GI50 [40] was 62.1 µM, the TGI [40] was greater than 100 µM and the GI50 [41] was 27.6 µM. The TGI [41] was 95 µM, the GI50 [42] was 39.8 µM and the TGI [42] was greater than 100 µM. It also gave a GI50 [43] of 19.2 µM, a TGI [43] of 35.7 µM and a GI50 [44] of 16.8 µM. For the same compound, the TGI [44] was 35.7 µM, the GI50 [45] was 21.5 µM and the TGI [45] was 48.4 µM. It also gave a GI50 [46] of 25.2 µM, a TGI [46] of 46.6 µM and a GI50 [47] of 18.7 µM. The TGI [47] was 40.6 µM, the GI50 [48] was 11.5 µM and the TGI [48] was 27.4 µM. The GI50 [49] was 22.9 µM, the TGI [49] was 59.7 µM and the GI50 [50] was 18.8 µM. For the same compound, the TGI [50] was 42.5 µM, the GI50 [51] was 34.4 µM and the TGI [51] was greater than 100 µM. The GI50 [52] was 17.8 µM, the TGI [52] was 34.5 µM and the GI50 [53] was 19.7 µM. It also gave a TGI [53] of 34.9 µM.
`CC(C)(C)[Si](C)(C)OCC1OC(n2cc(I)c(=O)[nH]c2=O)C(O[Si](C)(C)C(C)(C)C)C1O[Si](C)(C)C(C)(C)C` (stereo not given) was tested, and the TGI [3] was 75.4 µM, the TGI [5] was 45.6 µM and the TGI [54] was 47.6 µM. The TGI [6] was greater than 100 µM, the TGI [7] was 50.7 µM and the TGI [55] was 37 µM. The TGI [11] was greater than 100 µM, the TGI [12] was greater than 100 µM and the TGI [13] was 45.7 µM. It also gave a TGI [14] greater than 100 µM, a TGI [15] greater than 100 µM and a TGI [16] of 29.4 µM. It also gave a TGI [17] of 25.2 µM, a TGI [19] of 48 µM and a TGI [21] of 36.8 µM. For the same compound, the TGI [23] was 31.4 µM, the TGI [24] was 43.2 µM and the TGI [25] was 45.4 µM. The TGI [27] was 36.8 µM, the TGI [29] was 67.6 µM and the TGI [31] was greater than 100 µM. It also gave a TGI [32] of 53.7 µM, a TGI [34] of 29.1 µM and a TGI [35] greater than 100 µM. For the same compound, the TGI [36] was 37.4 µM, the TGI [37] was 50.2 µM and the TGI [38] was 39.8 µM. It also gave a TGI [39] of 26.1 µM, a TGI [40] of 28.5 µM and a TGI [41] of 28 µM. For the same compound, the TGI [56] was 33 µM, the TGI [42] was 43 µM and the TGI [45] was 57.2 µM. The TGI [46] was 41.4 µM, the TGI [48] was 56.2 µM and the TGI [50] was 38.1 µM. For the same compound, the TGI [51] was 35.2 µM, the TGI [52] was 43.1 µM and the TGI [53] was 35.4 µM.
